Converted amounts (≈) assume the structure as drawn. Structures can show the parent of a compound that is named as a salt. Where two headings read alike, the source gives them in different places.
How the values were obtained:
[1] = Diuretic test in rats according to the Lipschitz method (urine volume and electrolyte excretion vs urea control); format: in vivo; settings: rat
Method: The compounds of the present invention are evaluated as diuretics according to the method of W. L. Lipschitz, et al., J. Pharmacol. Expt. Therap., 79, 97 (1943). In this method, groups of 8 rats are fasted 18 hours prior to the experiment. A control group is hydrated orally with 25 ml. per kilogram of body weight of isotonic saline solution which is also the vehicle used for dosing the test compound. One control group received a dose of 960 mg./kg. of body weight of urea. Animals of other groups are tested with various doses of the test compound. Immediately after treatment, the animals are placed in metabolism cages (two rats of the same group per cage) and maintained without food or water for 5 hours. The volume of urine excreted by each pair is determined after this period and the pooled urine is analyzed for sodium, potassium, and chloride ions. […] In this test, the N-phenyl amidines of Formula I were orally administered in doses ranging from 2.7 to 25 mg./kg. of body weight.
One of the disadvantages associated with diuretics such as the thiazides is believed to stem largely from increased excretion of potassium ion concomitant with water elimination. […] As stated hereinabove,excessive excretion of potassium ion may cause an electrolyte imbalance resulting in adverse side effects.

[2] = test system: chloroform induced arrhythmia; experiment: Chloroform induced arrhythmia in the mouse; format: in vivo; settings: ip, intraperitoneal, read-out: ED50 preventing chloroform induced arrhythmia
Description: Another in vivo test indicative of antiarrhythmic activity is chloroform induced arrhythmia in the mouse.

[3] = test system: aconitine induced atrial arrhythmia; experiment: In vivo dog arrhythmia test (aconitine induced atrial arrhythmia); settings: Canis lupus familiaris, iv, read-out: effective dose restoring normal cardiac rhythm
Description: In the in vivo dog arrhythmia test, the chest of an anesthetized dog is opened in the mid-line and the right and left atrial appendages exposed to small slits in the pericardium. Bypolar recording electrodes are affixed to atrial surfaces and a 4 × 4 mm. piece of clean cloth is fixed to surface of the right auricular appendage. Control recordings are made of various heart functions including femoral arterial blood pressure and right and left atrail electrograms. Atrial arrhythmia is then induced by placing 3-5 drops of a solution of aconitine on the cloth which is fixed to the right atrium. An irregular, rapid atrial rate is produced within 1 minute. Throughout the test, fresh aconitine (2-3 drops) is placed on the cloth at 10 minute intervals. The test compound is administered intravenously 5 minutes after the initial establishment of the arrhythmia and infusion continued at a slow rate until an effective dose which re-establishes normal rhythm of the heart is obtained.
The Formula Ia N-phenylamidines are effective both orally and parenterally as antiarrhythmic agents. For instance, intravenous administration of about 2.5 mg./kg. of 3,4,5,6-tetrahydro-7-[(N-phenyl)-phenethylamino]-2H-azepine or 4,5,6,7,8,9-hexahydro-2-(N-phenylphenethyl-amino)-3H-azonine effectively restores normal cardiac rhythm to induced arrhythmia in the dog.

[4] = test system: rabbit ileum; experiment: In vitro smooth muscle relaxant test, isolated rabbit ileum with spasmogen; format: cell-based; settings: from EC50 vs spasmogen, papaverine = reference
Method: Smooth muscle relaxant activity of the compounds of the present invention can be measured in standard in vitro and in vivo pharmacological tests. One such in vitro test is carried out essentially as follows. A segment of rabbit ileum is suspended and oxygenated in Tyrode's solution and affixed to a tension transducer for electronic recording of isometric contractions. After controlled responses to a standard dose of a spasmogen such as barium chloride (0.25 mg./ml.), acetyl choline chloride (1.0 mcg./ml.), etc., are established, the test compound is added and the response to the spasmogen, in the presence of the test agent, again determined. Test compound effect is measured as the percentage reduction in the response to the spasmogen, in the presence of the test compound, from the mean control response. A minimum of four trials is obtained with each of two to five different concentrations of the test compound. The data are expressed in log dose response curves and estimates made therefrom of the EC50 (concentration causing 50% reduction in response of the tissue to the spasmogen). In general, the effect of compounds identified by Formula I on the rabbit ileum is similar to papaverine, a well-known smooth muscle relaxant. […]

[5] = test system: intestinal smooth muscle; experiment: In vivo intestinal smooth muscle relaxation in anesthetized cat (intraduodenal pressure)
Method: Intestinal smooth muscle relaxant activity can also be measured in an in vivo cat preparation. In this test, a balloon is inserted through a small incision in the stomach of an anesthetized cat to a point about 10 cm. down the duodenum and intralumenal intestinal pressure changes recorded. A solution or suspension of the test agent is administered intraduodenally about 2 cm. beyond the balloon placed for recording intraduodenal pressure in volume doses of 1 ml./kg. body weight. This means of administration mimics oral administration. Various doses of the test agent are administered and an inhibitory dose which supresses intestinal […] by 50% of maximum is determined. This value is designated the ID50. N-benzyl-N'-tert-butyl-N-phenylforamidine hydrochloride compared to papaverine is about 1.5 times as potent in this test.

[6] = test system: rabbit atrium; experiment: Isolated rabbit atrium test (refractory period); format: cell-based; settings: Oryctolagus cuniculus, read-out: EC50 (50% of maximal increase in refractory period)
Method: In the rabbit atrium test, the left atrium is placed in Chenoweth's solution warmed to 30° C. and irrigated with 95% oxygen:5% carbon dioxide. The lower end of the atrium is attached to a small hook fixed in the bath and the upper end is connected to a transducer to record contractile activity. The atrium is electrically stimulated at a basic rate of 30 per minute employing square wave pulses of 10 millisecond duration at 1.2-1.5 times threshold voltage. The test compound is introduced into the bath and the test repeated after a 5 minute interval. A dose response relationship is obtained by additional doses of the test compound. Potency of a test agent can be expressed as the effective concentration which produces 50% of the maximal increase in the measured refractory period of the steady state atrium. This value is designated the EC50.

[7] = test system: histamine challenged guinea pig; experiment: Histamine challenged guinea pig aerosol test (bronchodilation); format: in vivo; settings: oral
Description: As a bronchodilating agent, 3-[(N-1-pyrrolin-2-yl-p-anisidino)methyl]indolehydrochloride is of particular interest. In the histamine challenged guinea pig aerosol test, refer to Turner, Screening Methods In Pharmacology, page 214 (1965) (Academic Press, New York), this compound is about 1.4 times as potent as aminophylline when administered orally.

[8] = test system: guinea pig isolated tracheal spiral; experiment: In vitro guinea pig isolated tracheal spiral test; format: cell-based
Method: Another in vitro test measuring the smooth muscle relaxant properties of the compounds of the present invention employs the guinea pig isolated tracheal spiral and is carried out essentially as described by Lish, et al., J. Pharmacol. Exp. Therap., 129, 191 (1960). As illustrative of the activity of the compounds of the present invention in this test there can be mentioned 3-[(N-1-pyrrolin-2-yl-p-anisidino)methyl]indole hydrochloride which is about 1.7 times as potent as aminophylline.

[9] = rabbit left atrium, 30° C., Chenoweth's solution

## c1ccc(N=C2CCCN2)cc1 [2-phenyliminopyrrolidine, reference compound]
[1]; Lipschitz method
  diuretic activity (in words): substantially inactive as a diuretic agent

## c1ccc(CCN(C2=NCCCCC2)c2ccccc2)cc1 [3,4,5,6-tetrahydro-7-[(N-phenyl)phenethylamino]-2H-azepine]
[2]
  ED50: 11.5 mg/kg
[3]
  minimal effective dose: ~2.5 mg/kg

## c1ccc(CCN(C2=NCCCCCCC2)c2ccccc2)cc1 [4,5,6,7,8,9-hexahydro-2-(N-phenylphenethylamino)-3H-azonine]
[3]
  minimal effective dose: ~2.5 mg/kg

## CC(C)(C)N=CN(CCc1ccccc1)c1ccccc1.Cl [Example 1, N'-tert-Butyl-N-phenethyl-N-phenylformamidine hydrochloride]
[4]
  smooth muscle relaxant potency relative to papaverine (times as potent): 5

## CC(C)(C)N=CN(Cc1ccccc1)c1ccccc1.Cl [Example 2, N-Benzyl-N'-tert.-butyl-N-phenylformamidine hydrochloride]
[5]
  potency relative to papaverine (times as potent, ID50): about 1.5

## CC1CCC(N(Cc2ccccc2)c2ccccc2)=N1.Cl (stereo not shown) [Example 5, 5-Methyl-2-(N-phenylbenzylamino)-1-pyrroline hydrochloride]
[1]; oral, 6.25 mg./kg.
  ratio of sodium ion excretion to potassium ion excretion: 2.7
[1]; oral, 6.25 mg./kg., 5 hours
  ratio for potassium ion excretion vs urea control group: 0.75
  ratio for sodium ion excretion vs urea control group: 2.03
  ratio for volume excretion vs urea control group: 2.32

## Cl.c1ccc(CCN(C2=NCCCCC2)c2ccccc2)cc1 [Example 10, 3,4,5,6-Tetrahydro-7-[(N-phenyl)phenethylamino]-2H-azepine hydrochloride]
[6]; [9]
  EC50: 7.2 µg/mL

## COc1ccc(N(Cc2c[nH]c3ccccc23)C2=NCCC2)cc1 [Example 34, 3-[N-1-Pyrrolin-2-yl-p-anisidino)methyl]indole hydrochloride]
[7]
  bronchodilating potency relative to aminophylline (times as potent): about 1.4
[8]
  potency relative to aminophylline (times as potent): about 1.7

## CC1CCC(N(Cc2c[nH]c3ccccc23)c2ccccc2)=N1.Cl (stereo not shown) [Example 37, 3-[[N-(5-methyl-1-pyrrolin-2yl)anilino]methyl]indole hydrochloride]
[4]
  smooth muscle relaxant potency relative to papaverine (times as potent): 1.4

## c1ccc(CCN(C2=NCCCCCC2)c2ccccc2)cc1 [Example 60, 3,4,5,6,7,8-Hexahydro-2-(N-phenylphenethylamino)azocine hydrochloride hemihydrate]
[6]; [9]
  EC50: 2.5 µg/mL

## Cl.c1ccc(CCN(C2=NCCCCCCC2)c2ccccc2)cc1 [Example 61, 4,5,6,7,8,9-Hexahydro-2-(N-phenylphenethylamino)-3H-azonine Hydrochloride]
[6]; [9]
  EC50: 1.9 µg/mL

## NS(=O)(=O)c1cc2c(cc1Cl)NCNS2(=O)=O [Hydrochlorothiazide, reference compound]
[1]; oral, 6.25 mg./kg.
  ratio of sodium ion excretion to potassium ion excretion: 1.65

## C=C[C@H]1C[N@@]2CC[C@H]1C[C@@H]2[C@@H](O)c1ccnc2ccc(OC)cc12 [Quinidine, reference compound]
[6]
  EC50: 18 µg/mL (≈ 55.5 µM)
[3]
  minimal effective dose: 6 mg/kg
